Source: patent US20240228446A1, “PREPARATION METHOD FOR BICYCLIC COMPOUND AND APPLICATION AS ANTIFUNGAL AGENT” (priority 2021, published 2024)
Converted amounts (≈) assume the structure as drawn.

How the values were obtained:
[1] = test system: Candida albicans ATCC MYA-2876; assay: Minimal inhibitory concentration (MIC) test on fungal growth (CLSI M27, yeasts); type: cell-based; conditions: lowest concentration inhibiting growth of yeast by 50%, 35° C., 24 hours, RPMI1640; for MIC: Candida albicans, read-out: MIC Candida albicans ATCC MYA-2876
Outline: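 Broth microdilution followed CLSI M27 in RPMI1640 buffered with 0.165 M MOPS, pH 7.0, with a final inoculum of 500–2500 CFU/mL. Eleven 2-fold compound concentrations were tested, and plates were incubated 24 h at 35 °C. MIC was the lowest concentration giving 50% growth inhibition, read visually with optional OD530 assistance.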

[2] = test system: Aspergillus fumigatus ATCC MYA-4609; assay: Minimal inhibitory concentration (MIC) test on fungal growth (CLSI M38, Aspergillus); type: cell-based; conditions: lowest concentration inhibiting Aspergillus by 100%, 35° C., 48 hours, RPMI1640; for MIC: Aspergillus fumigatus, read-out: MIC Aspergillus fumigatus ATCC MYA-4609
Method: • RPMI1640 medium: Brand: Gibco, article number: 31800-014 • Sabouraud dextrose agar (SDA): Brand: Hope Bio, article number: HB0253-81 • Voriconazole: Brand: Adamas, article number: 22105A • Amphotericin B: Brand: AbCam, article number: ab141199
MIC test was conducted in accordance with the guidelines and requirements of CLSI M27 (for yeasts) and M38 (for Aspergillus).
Strain preparation: The strains were inoculated 1 day in advance by streaking on SDA plates with glycerol strains stored at −80° C. The strains were cultured at 35° C. and 40 to 60% humidity for 18 to 24 hours. Streak inoculation of Aspergillus fumigatus and Cryptococcus neoformans was required to be done 3 days and 2 days in advance, respectively.
Preparation of culture medium and compounds: The liquid culture medium RPMI was prepared with pure water, and 0.165 mol/L MOPS was added to adjust the pH to 7.0. The mixture was filtered with a 0.22 μm-membrane filter, sterilized, and stored at 4° C. (no more than 3 months). 0.85% physiological saline was sterilized at 121° C. for 30 min and then stored at room temperature (no more than 1 week). The compounds were dissolved in DMSO to 12.8 mg/mL and stored at −20° C.
For Aspergillus, 5 mL of physiological saline was added to cover the mycelium, and the spores were gently scraped off with a spreader. The spore suspension was then transferred to a sterile test tube. An appropriate amount of spore suspension was taken and counted under a microscope using a hemocytometer. Spore concentration was adjusted to approximately 0.4 to 5×10^4 spores/mL using RPMI1640 medium.
The compound was diluted to the highest 800 μg/mL (or 400 μg/mL) with DMSO, and a 10-step 2-fold gradient dilution was performed, resulting in 11 concentrations. 2 μL of the gradient-diluted compound was transferred to the corresponding wells of a 96-well plate, and then 198 μL of the inoculum was transferred to the test plate. The plate was incubated at 35° C. for 24 hours (Aspergillus fumigatus and Cryptococcus neoformans were incubated for 48 and 72 hours, respectively).
After the incubation, the growth of the fungi was visually observed. The lowest concentration of the compound that inhibited the growth of yeast by 50% (inhibited Aspergillus by 100%) was defined as the minimum inhibitory concentration (MIC, μg/mL). A magnifying glass or reading at OD530 nm could be used to assist in determining the MIC. Photos were taken of the test plates for record keeping.

| Compound | MIC [1] | MIC [2] | MIC Candida albicans ATCC MYA-2876 [1] | MIC Aspergillus fumigatus ATCC MYA-4609 [2] |
| --- | --- | --- | --- | --- |
| N#Cc1ccc(C23CC(C(F)(F)[C@](O)(Cn4cncn4)c4cc(F)ccc4F)(C2)C3)cc1 [Compound 29A] | ≤ 0.0039 µg/mL | 1 µg/mL (≈ 2.26 µM) |  |  |
| N#Cc1ccc(C23CC(C(F)(F)C(O)(Cn4cncn4)c4cc(F)ccc4F)(C2)C3)cc1 (stereo not drawn) [Compound 29] | ≤ 0.0039 µg/mL | 2 µg/mL (≈ 4.52 µM) |  |  |
| CNC(=O)COc1ccc(C23CC(C(F)(F)[C@](O)(Cn4cncn4)c4ccc(F)cc4F)(C2)C3)cc1 [Compound 35A] |  |  | ≤0.0039 µg/mL | 1 µg/mL (≈ 1.98 µM) |
| CNC(=O)COc1ccc(C23CC(C(F)(F)C(O)(Cn4cncn4)c4ccc(F)cc4F)(C2)C3)cc1 (stereo not drawn) [Compound 35] | ≤ 0.0039 µg/mL | 2 µg/mL (≈ 3.96 µM) |  |  |
| CC(C)(O)COc1ccc(C23CC(C(F)(F)[C@](O)(Cn4cnnn4)c4ccc(F)cc4F)(C2)C3)cc1 [Compound 36A] | 0.0078 µg/mL (≈ 0.0154 µM) | 4 µg/mL (≈ 7.9 µM) |  |  |
| CC(C)(O)COc1ccc(C23CC(C(F)(F)C(O)(Cn4cnnn4)c4ccc(F)cc4F)(C2)C3)cc1 (stereo not drawn) [Compound 36] | ≤ 0.0039 µg/mL | 8 µg/mL (≈ 15.8 µM) |  |  |
| CC(C)(O)COc1ccc(C23CC(C(F)(F)[C@](O)(Cn4cncn4)c4ccc(F)cc4F)(C2)C3)cc1 [Compound 37A] | ≤ 0.0039 µg/mL | 1 µg/mL (≈ 1.98 µM) |  |  |
| CC(C)(O)COc1ccc(C23CC(C(F)(F)C(O)(Cn4cncn4)c4ccc(F)cc4F)(C2)C3)cc1 (stereo not drawn) [Compound 37] | ≤ 0.0039 µg/mL | 2 µg/mL (≈ 3.96 µM) |  |  |
| O[C@@](Cn1cnnn1)(c1ccc(F)cc1F)C(F)(F)C12CC(c3ccc(O[C@@H]4CCOC4)cc3)(C1)C2 [Compound 40A] |  |  | ≤0.0039 µg/mL | 4 µg/mL (≈ 7.93 µM) |
| OC(Cn1cnnn1)(c1ccc(F)cc1F)C(F)(F)C12CC(c3ccc(O[C@@H]4CCOC4)cc3)(C1)C2 (stereo partly drawn) [Compound 40] | ≤ 0.0039 µg/mL | 16 µg/mL (≈ 31.7 µM) |  |  |
| O[C@@](Cn1cnnn1)(c1ccc(F)cc1F)C(F)(F)C12CC(c3ccc(O[C@H]4CCOC4)cc3)(C1)C2 [Compound 41A] |  |  | ≤0.0039 µg/mL | 8 µg/mL (≈ 15.9 µM) |
| OC(Cn1cnnn1)(c1ccc(F)cc1F)C(F)(F)C12CC(c3ccc(O[C@H]4CCOC4)cc3)(C1)C2 (stereo partly drawn) [Compound 41] | 0.0078 µg/mL (≈ 0.0155 µM) | 8 µg/mL (≈ 15.9 µM) |  |  |
| O[C@@](Cn1cnnn1)(c1ccc(F)cc1F)C(F)(F)C12CC(c3ccc(OCC(F)(F)F)nc3)(C1)C2 [Compound 46A] |  |  | 0.0078 µg/mL (≈ 0.0151 µM) | 2 µg/mL (≈ 3.87 µM) |
| O[C@](Cn1cncn1)(CC12CC(c3ccc(OCC(F)(F)F)cc3)(C1)C2)c1ccc(F)cc1F [Compound 49A] | ≤ 0.0039 µg/mL | 0.5 µg/mL (≈ 1.04 µM) |  |  |

Other lines, results leading:

| MIC [1] | MIC [2] | MIC Candida albicans ATCC MYA-2876 [1] | MIC Aspergillus fumigatus ATCC MYA-4609 [2] | Compound |
| --- | --- | --- | --- | --- |
| 0.0078 µg/mL (≈ 0.0163 µM) | 1 µg/mL (≈ 2.09 µM) |  |  | OC(Cn1cncn1)(CC12CC(c3ccc(OCC(F)(F)F)cc3)(C1)C2)c1ccc(F)cc1F (stereo not drawn) [Compound 49] |
| 0.0078 µg/mL (≈ 0.0148 µM) | 2 µg/mL (≈ 3.78 µM) |  |  | OCC(F)(F)COc1ccc(C23CC(C(F)(F)[C@](O)(Cn4cnnn4)c4ccc(F)cc4F)(C2)C3)cc1 [Compound 50A] |
| 0.016 µg/mL (≈ 0.0303 µM) | 4 µg/mL (≈ 7.57 µM) |  |  | OCC(F)(F)COc1ccc(C23CC(C(F)(F)C(O)(Cn4cnnn4)c4ccc(F)cc4F)(C2)C3)cc1 (stereo not drawn) [Compound 50] |
| ≤ 0.0039 µg/mL | 1 µg/mL (≈ 1.83 µM) |  |  | O[C@H](COc1ccc(C23CC(C(F)(F)[C@](O)(Cn4cnnn4)c4ccc(F)cc4F)(C2)C3)cc1)C(F)(F)F [Compound 51A] |
|  |  | 0.0078 µg/mL (≈ 0.0143 µM) | 4 µg/mL (≈ 7.32 µM) | O[C@@H](COc1ccc(C23CC(C(F)(F)[C@](O)(Cn4cnnn4)c4ccc(F)cc4F)(C2)C3)cc1)C(F)(F)F [Compound 51B] |
| 0.0078 µg/mL (≈ 0.0143 µM) | 4 µg/mL (≈ 7.32 µM) |  |  | OC(COc1ccc(C23CC(C(F)(F)C(O)(Cn4cnnn4)c4ccc(F)cc4F)(C2)C3)cc1)C(F)(F)F (stereo not drawn) [Compound 51] |
| 0.016 µg/mL (≈ 0.0316 µM) | 8 µg/mL (≈ 15.8 µM) |  |  | COCCCOc1ccc(C23CC(C(F)(F)C(O)(Cn4cnnn4)c4ccc(F)cc4F)(C2)C3)cc1 (stereo not drawn) [Compound 61] |
